{"source": "ChEMBL document CHEMBL5620362", "about": "(Eur J Med Chem, 2023)", "key": {"[1]": {"target": "T1, Nuclear receptor ROR-gamma (Homo sapiens, UniProt P51449)", "T1 sequence (P51449 whole entry)": "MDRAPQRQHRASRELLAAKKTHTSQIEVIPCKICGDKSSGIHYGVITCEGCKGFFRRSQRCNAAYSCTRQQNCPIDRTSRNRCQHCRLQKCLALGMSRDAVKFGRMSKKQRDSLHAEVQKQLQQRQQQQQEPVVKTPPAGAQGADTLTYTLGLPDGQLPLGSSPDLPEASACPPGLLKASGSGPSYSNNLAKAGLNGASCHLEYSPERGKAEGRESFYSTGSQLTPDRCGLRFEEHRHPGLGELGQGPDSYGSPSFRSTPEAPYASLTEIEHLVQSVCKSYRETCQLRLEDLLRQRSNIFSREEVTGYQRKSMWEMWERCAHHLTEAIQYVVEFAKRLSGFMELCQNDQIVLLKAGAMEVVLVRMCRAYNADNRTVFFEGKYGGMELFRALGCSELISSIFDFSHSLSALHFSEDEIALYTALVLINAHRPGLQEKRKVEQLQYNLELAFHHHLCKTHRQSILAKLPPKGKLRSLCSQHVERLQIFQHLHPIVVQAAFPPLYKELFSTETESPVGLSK", "assay": "Binding affinity to CM5 chip-immobilized recombinant ROR-gamma LBD (unknown origin) assessed as dissociation constant by SPR analysis"}, "[2]": {"system": "HPAF-II", "assay": "Induction of apoptosis in human HPAF-II cells assessed as late apoptotic cells at 10 uM incubated for 48 hrs by Annexin V-FITC/PI staining based flow cytometry (reference value: 1.28 %)", "assay_type": "functional"}, "[3]": {"system": "HPAF-II", "assay": "Induction of apoptosis in human HPAF-II cells assessed as necrotic cells at 10 uM incubated for 48 hrs by Annexin V-FITC/PI staining based flow cytometry (reference value: 8.09 %)", "assay_type": "functional"}, "[4]": {"system": "HPAF-II", "assay": "Induction of apoptosis in human HPAF-II cells assessed as early apoptotic cells at 1 uM incubated for 48 hrs by Annexin V-FITC/PI staining based flow cytometry (reference value: 0.90 %)", "assay_type": "functional"}, "[5]": {"system": "HPAF-II", "assay": "Induction of apoptosis in human HPAF-II cells assessed as viable cells at 0.1 uM incubated for 48 hrs by Annexin V-FITC/PI staining based flow cytometry (reference value: 89.73 %)", "assay_type": "functional", "details": "read-out: Activity"}, "[6]": {"system": "HPAF-II", "assay": "Induction of apoptosis in human HPAF-II cells assessed as early apoptotic cells at 0.1 uM incubated for 48 hrs by Annexin V-FITC/PI staining based flow cytometry (reference value: 0.90 %)", "assay_type": "functional"}, "[7]": {"system": "HPAF-II", "assay": "Induction of apoptosis in human HPAF-II cells assessed as necrotic cells at 0.1 uM incubated for 48 hrs by Annexin V-FITC/PI staining based flow cytometry (reference value: 8.09 %)", "assay_type": "functional"}, "[8]": {"system": "HPAF-II", "assay": "Induction of apoptosis in human HPAF-II cells assessed as viable cells at 0.01 uM incubated for 48 hrs by Annexin V-FITC/PI staining based flow cytometry (reference value: 89.73 %)", "assay_type": "functional", "details": "read-out: Activity"}, "[9]": {"system": "HPAF-II", "assay": "Induction of apoptosis in human HPAF-II cells assessed as late apoptotic cells at 0.01 uM incubated for 48 hrs by Annexin V-FITC/PI staining based flow cytometry (reference value: 1.28 %)", "assay_type": "functional"}, "[10]": {"system": "HPAF-II", "assay": "Induction of apoptosis in human HPAF-II cells assessed as necrotic cells at 0.01 uM incubated for 48 hrs by Annexin V-FITC/PI staining based flow cytometry (reference value: 8.09 %)", "assay_type": "functional"}, "[11]": {"system": "NCI-H23", "assay": "Induction of apoptosis in human NCI-H23 cells assessed as viable cells at 1 uM incubated for 48 hrs by Annexin V-FITC/PI staining based flow cytometry (reference value: 92.16 %)", "assay_type": "functional", "details": "read-out: Activity"}, "[12]": {"system": "NCI-H23", "assay": "Induction of apoptosis in human NCI-H23 cells assessed as necrotic cells at 1 uM incubated for 48 hrs by Annexin V-FITC/PI staining based flow cytometry (reference value: 0.78 %)", "assay_type": "functional"}, "[13]": {"system": "NCI-H23", "assay": "Induction of apoptosis in human NCI-H23 cells assessed as viable cells at 0.1 uM incubated for 48 hrs by Annexin V-FITC/PI staining based flow cytometry (reference value: 92.16 %)", "assay_type": "functional", "details": "read-out: Activity"}, "[14]": {"system": "NCI-H23", "assay": "Induction of apoptosis in human NCI-H23 cells assessed as late apoptotic cells at 0.1 uM incubated for 48 hrs by Annexin V-FITC/PI staining based flow cytometry (reference value: 2.89 %)", "assay_type": "functional"}, "[15]": {"system": "NCI-H23", "assay": "Induction of apoptosis in human NCI-H23 cells assessed as early apoptotic cells at 0.01 uM incubated for 48 hrs by Annexin V-FITC/PI staining based flow cytometry (reference value: 4.17 %)", "assay_type": "functional"}, "[16]": {"system": "NCI-H23", "assay": "Induction of apoptosis in human NCI-H23 cells assessed as necrotic cells at 0.01 uM incubated for 48 hrs by Annexin V-FITC/PI staining based flow cytometry (reference value: 0.78 %)", "assay_type": "functional"}, "[17]": {"system": "EOL1", "assay": "Anticancer activity against human EOL1 cells incubated for 72 hrs", "assay_type": "functional, cell-based"}, "[18]": {"system": "MV4-11", "assay": "Anticancer activity against human MV4-11 cells incubated for 72 hrs", "assay_type": "functional, cell-based"}, "[19]": {"system": "NCI-H1373", "assay": "Anticancer activity against human NCI-H1373 cells incubated for 72 hrs", "assay_type": "functional, cell-based"}, "[20]": {"system": "SW1573", "assay": "Anticancer activity against human SW1573 cells incubated for 72 hrs", "assay_type": "functional, cell-based"}, "[21]": {"system": "PANC-1", "assay": "Anticancer activity against human PANC-1 cells incubated for 72 hrs", "assay_type": "functional, cell-based"}, "[22]": {"system": "HEK-293T", "assay": "Cytotoxicity against HEK293T cells incubated for 72 hrs", "assay_type": "toxicity, cell-based", "details": "human"}, "[23]": {"system": "HPAF-II", "assay": "Downregulation of phosphorylated ERK expression in human HPAF-II cells at 0.1 to 1 uM incubated for 48 hrs by Western blot analysis", "assay_type": "functional, cell-based", "details": "dose 0.1-1 µM"}, "[24]": {"system": "MIA PaCa-2", "assay": "Inhibition of colony formation in human MIA PaCa-2 cells harboring siROR-gamma 0.1 uM incubated for 6 to 7 days by crystal violet staining based analysis", "assay_type": "functional, cell-based", "details": "time 6-7 day"}, "[25]": {"assay": "AUC (infinity) in ICR mouse at 3 mg/kg, iv", "assay_type": "ADME, organism-based", "details": "in vivo"}, "[26]": {"assay": "Volume of distribution at steady state in ICR mouse at 3 mg/kg, iv", "assay_type": "ADME, organism-based", "details": "in vivo, read-out: Vdss"}, "[27]": {"assay": "MRT (infinity) in ICR mouse at 3 mg/kg, iv", "assay_type": "ADME, organism-based", "details": "in vivo"}, "[28]": {"assay": "Tmax in ICR mouse at 10 mg/kg, po", "assay_type": "ADME, organism-based", "details": "in vivo"}, "[29]": {"assay": "MRT (infinity) in ICR mouse at 10 mg/kg, po", "assay_type": "ADME, organism-based", "details": "in vivo"}, "[30]": {"system": "HPAF-II", "assay": "Antitumor activity against human HPAF-II cells xenografted in nude Balb/cA mouse assessed as tumor growth inhibition at 90 mg/kg, po qd measured for 12 days relative to control", "assay_type": "functional", "set-up": "scale not given: the % may be the effect or the level left", "details": "time 12 day"}, "[31]": {"system": "HPAF-II", "assay": "Antitumor activity against human HPAF-II cells xenografted in nude Balb/cA mouse assessed as tumor growth inhibition at 180 mg/kg, po qd measured for 12 days relative to control", "assay_type": "functional", "set-up": "scale not given: the % may be the effect or the level left", "details": "time 12 day"}, "[32]": {"system": "HPAF-II", "assay": "Antitumor activity against human HPAF-II cells xenografted in nude Balb/cA mouse assessed as tumor growth inhibition at 15 mg/kg, ip qd measured for 12 days relative to control", "assay_type": "functional", "set-up": "scale not given: the % may be the effect or the level left", "details": "time 12 day"}, "[33]": {"assay": "Toxicity in nude Balb/cA mouse xenografted with human HPAF-II cells assessed as body weight loss at 90 to 180 mg/kg, po qd measured for 12 days", "assay_type": "organism-based", "details": "in vivo, 288 h, dose 90-180 mg/kg, time 12 day"}}, "note": "pKd: −log10 of the molar value. Active and inactive are the calls of the source. The rule behind the calls is not given here.", "data": [{"smiles": "C=C(C)[C@@H]1CC[C@]2(C(=O)NCCCN(C)C)CC[C@]3(C)[C@H](CC[C@@H]4[C@@]5(C)CC[C@H](O)C(C)(C)[C@@H]5CC[C@]43C)[C@@H]12", "values": [{"measurement": "pKd", "setting": "[1]", "result": 6.74}, {"measurement": "Activity", "setting": "[2]", "result": 42.77, "unit": "%"}, {"measurement": "Activity", "setting": "[3]", "result": 3.33, "unit": "%"}, {"measurement": "Activity", "setting": "[4]", "result": 39.49, "unit": "%"}, {"measurement": "viability at 0.1 µM", "setting": "[5]", "result": 59.3, "unit": "%"}, {"measurement": "Activity", "setting": "[6]", "result": 23.73, "unit": "%"}, {"measurement": "Activity", "setting": "[7]", "result": 4.85, "unit": "%"}, {"measurement": "viability at 0.01 µM", "setting": "[8]", "result": 82.6, "unit": "%"}, {"measurement": "Activity", "setting": "[9]", "result": 4.48, "unit": "%"}, {"measurement": "Activity", "setting": "[10]", "result": 7.52, "unit": "%"}, {"measurement": "viability at 1 µM", "setting": "[11]", "result": 12.7, "unit": "%"}, {"measurement": "Activity", "setting": "[12]", "result": 1.48, "unit": "%"}, {"measurement": "viability at 0.1 µM", "setting": "[13]", "result": 79.5, "unit": "%"}, {"measurement": "Activity", "setting": "[14]", "result": 12.32, "unit": "%"}, {"measurement": "Activity", "setting": "[15]", "result": 4.06, "unit": "%"}, {"measurement": "Activity", "setting": "[16]", "result": 2.81, "unit": "%"}, {"measurement": "Activity", "setting": "[17]", "result": "Active"}, {"measurement": "Activity", "setting": "[18]", "result": "Active"}, {"measurement": "Activity", "setting": "[19]", "result": "Active"}, {"measurement": "Activity", "setting": "[20]", "result": "Active"}, {"measurement": "Activity", "setting": "[21]", "result": "Active"}, {"measurement": "Activity", "setting": "[22]", "result": "Non-Toxic"}, {"measurement": "Activity", "setting": "[23]", "result": "Active"}, {"measurement": "inhibition", "setting": "[24]", "result": "inactive"}, {"measurement": "AUC(0-inf)", "setting": "[25]", "result": 3050, "unit": "ng·h/mL"}, {"measurement": "Vd", "setting": "[26]", "result": 5.21, "unit": "L/kg"}, {"measurement": "MRT inf", "setting": "[27]", "result": 5.22, "unit": "h"}, {"measurement": "Tmax", "setting": "[28]", "result": 2, "unit": "h"}, {"measurement": "MRT inf", "setting": "[29]", "result": 16.6, "unit": "h"}, {"measurement": "Activity", "setting": "[30]", "result": 21, "unit": "%"}, {"measurement": "Activity", "setting": "[31]", "result": 49, "unit": "%"}, {"measurement": "Activity", "setting": "[32]", "result": 76, "unit": "%"}, {"measurement": "Activity", "setting": "[33]", "result": "Non-Toxic"}]}]}
